Data taken from BindingDB's records for doi:10.1021/cb500512z (University of Wisconsin-Milwaukee, 2014).

Target: Genome polyprotein (Hepacivirus C, UniProt A3EZJ3)
Experiment: EMSA
Conditions: pH 7.5; 23 °C
Experimental: Binding assays containing 25 mM MOPS pH 7.5, 1.25 mM MgCl2, 20 nM Cy5-dT15, and 200 nM NS3h_1b were incubated 5 min at RT. Following addition of indicated concentrations of ebselen, the binding reactions were incubated another 5 min at 23 C.

Sequence of Genome polyprotein (A3EZJ3 whole entry): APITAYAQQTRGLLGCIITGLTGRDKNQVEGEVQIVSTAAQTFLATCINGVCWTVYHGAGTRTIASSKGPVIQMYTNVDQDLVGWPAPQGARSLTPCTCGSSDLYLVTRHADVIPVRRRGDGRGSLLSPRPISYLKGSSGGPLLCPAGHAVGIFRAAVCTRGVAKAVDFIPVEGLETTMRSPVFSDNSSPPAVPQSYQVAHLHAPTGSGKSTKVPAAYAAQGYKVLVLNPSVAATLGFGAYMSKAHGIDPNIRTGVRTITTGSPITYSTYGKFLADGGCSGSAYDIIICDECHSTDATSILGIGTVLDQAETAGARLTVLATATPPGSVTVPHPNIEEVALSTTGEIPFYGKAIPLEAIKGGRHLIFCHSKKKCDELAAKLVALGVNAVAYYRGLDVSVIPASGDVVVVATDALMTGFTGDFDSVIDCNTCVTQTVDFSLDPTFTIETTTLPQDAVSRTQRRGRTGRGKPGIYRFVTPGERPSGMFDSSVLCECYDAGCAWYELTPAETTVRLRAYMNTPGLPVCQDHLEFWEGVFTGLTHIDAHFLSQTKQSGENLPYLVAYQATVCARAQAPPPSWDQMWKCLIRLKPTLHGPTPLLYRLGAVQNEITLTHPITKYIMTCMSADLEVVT

`Cc1ccccc1NC(=O)Cn1sc2ccccc2c1=O` was tested, and the IC50 was 3.9 µM.
